Source: patent US4663327A, “1-heteroaryl-4-aryl-pyrazolin-5-ones” (priority 1984, dated 1987)
In brackets after ≈: the same amount, converted by molar mass.

How the values were obtained:
Leptosphaeria nodorum = Leptosphaeria nodorum test (wheat)/protective; format: in vivo; conditions: sprayed, evaluation 10 days after inoculation
Method: Leptosphaeria nodorum test (wheat)/protective Solvent: 100 parts by weight of dimethylformamide Emulsifier: 0.25 parts by weight of alkylaryl polyglycol ether To produce a suitable preparation of active compound, 1 part by weight of active compound is mixed with the stated amounts of solvent and emulsifier, and the concentrate is diluted with water to the desired concentration. To test for protective activity, young plants are sprayed with the preparation of active compound until dew-moist. After the spray coating has dried on, the plants are sprayed with a conidia suspension of Leptosphaeria nodorum. The plants remain for 48 hours in an incubation cabinet at 20° C. and 100% relative atmospheric humidity. The plants are placed in a greenhouse at a temperature of about 15° C. and a relative atmospheric humidity of about 80%. Evaluation is effected 10 days after the inoculation.

Cochliobolus sativus = Cochliobolus sativus test (barley)/protective; format: in vivo; conditions: sprayed, evaluation 7 days after inoculation
Method: Cochliobolus sativus test (barley)/protective Solvent: 100 parts by weight of dimethylformamide Emulsifier: 0.25 parts by weight of alkylaryl polyglycol ether To produce a suitable preparation of active compound, 1 part by weight of active compound is mixed with the stated amounts of solvent and emulsifier, and the concentrate is diluted with water to the desired concentration. To test for protective activity, young plants are sprayed with the preparation of active compound until dew-moist. After the spray coating has dried on, the plants are sprayed with a conidia suspension of Cochliobolus sativus. The plants remain in an incubation cabinet for 48 hours at 20° C. and 100% relative atmospheric humidity. The plants are placed in a greenhouse at a temperature of about 20° C. and a relative atmospheric humidity of about 80%. Evaluation is carried out 7 days after the inoculation.

Alternaria tenuis = assay: MIC on fungi in agar; conditions: Alternaria alternata, 336 h
Method: (§1) After storage for 2 weeks at 28° C. and 60 to 70% relative atmospheric humidity, the MIC is determined.

Aspergillus niger = assay: MIC on fungi in agar; conditions: 336 h
Method: as §1

Aureobasidium pullulans = assay: MIC on fungi in agar; conditions: 336 h
Method: as §1

Chaetomium globosum = assay: MIC on fungi in agar; conditions: 336 h
Method: as §1

Coniophora puteana = assay: MIC on fungi in agar; conditions: 336 h
Method: as §1

Lentinus tigrinus = assay: MIC on fungi in agar; conditions: 336 h
Method: as §1

Penicillium glaucum = assay: MIC on fungi in agar; conditions: 336 h
Method: as §1

Polyporus versicolor = assay: MIC on fungi in agar; conditions: Trametes versicolor, 336 h
Method: as §1

Sclerophoma pityophila = assay: MIC on fungi in agar; conditions: Sydowia polyspora, 336 h
Method: as §1

Trichoderma viride = assay: MIC on fungi in agar; conditions: 336 h
Method: as §1

Botrytis cinerea = assay: Botrytis test (BEAN)/protective; format: in vivo; conditions: sprayed, infected spots on leaves evaluated 3 days after inoculation
Method: Botrytis test (BEAN)/protective Solvent: 4.7 parts by weight of acetone Emulsifier: 0.3 parts by weight alkyl aryl polyglycol ether To produce a suitable preparation of active compound, 1 pat by weight of active compound is mixed with the stated amounts of solvent and emulsifier, and the concentrate is diluted with water to the desired concentration. To test for protective activity, young plants are sprayed with the preparation of active compound until dripping wet. After the spray coating has dried on, 2 small pieces of agar covered with Botrytis cinerea are placed on each leaf. The inoculated plants are placed in a darkened humidity chamber at 20° C. 3 days after the inoculation, the size of the infected spots on the leaves is evaluated.

Phytophthora infestans = format: in vivo; conditions: tomato, sprayed, evaluation 3 days after inoculation
Pyricularia oryzae [1] = format: in vivo; conditions: rice, sprayed, disease infestation 4 days after inoculation
Pyricularia oryzae [2] = format: in vivo; conditions: rice, soil watered 7 days before inoculation, disease infestation 4 days after inoculation

With `O=c1c(-c2ccccc2F)c[nH]n1-c1ccccn1` [Example 5] the protective activity (Leptosphaeria nodorum) was “clearly superior activity compared with the prior art”, the protective activity (Cochliobolus sativus) was “clearly superior activity compared with the prior art” and the MIC (Alternaria tenuis) was 20 µg/mL (≈ 78.4 µM). The MIC (Aspergillus niger) was 3.5 µg/mL (≈ 13.7 µM), the MIC (Aureobasidium pullulans) was 20 µg/mL (≈ 78.4 µM) and the MIC (Chaetomium globosum) was 0.5 µg/mL (≈ 1.96 µM). For the same molecule, the MIC (Coniophora puteana) was 2 µg/mL (≈ 7.84 µM), the MIC (Lentinus tigrinus) was 20 µg/mL (≈ 78.4 µM) and the MIC (Penicillium glaucum) was 5 µg/mL (≈ 19.6 µM). The MIC (Polyporus versicolor) was 7.5 µg/mL (≈ 29.4 µM), the MIC (Sclerophoma pityophila) was 15 µg/mL (≈ 58.8 µM) and the MIC (Trichoderma viride) was 35 µg/mL (≈ 137 µM).
`O=c1c(-c2ccc(Cl)cc2)c[nH]n1-c1ccccn1` [Example 9] was tested, and the protective activity (Leptosphaeria nodorum) was “clearly superior activity compared with the prior art” and the protective activity (Cochliobolus sativus) was “clearly superior activity compared with the prior art”.
In the case of `O=c1c(-c2ccc(Cl)cc2Cl)c[nH]n1-c1ccccn1` [Example 12], the protective activity (Botrytis cinerea) is reported as “clearly superior activity compared with the prior art” and the protective activity (Cochliobolus sativus) is reported as “clearly superior activity compared with the prior art”.
`O=c1c(-c2ccc(Cl)c(Cl)c2)c[nH]n1-c1ccccn1` [Example 13] was tested, and the protective activity (Phytophthora infestans) was “clearly superior activity compared with the prior art”.
With `COc1ccc(-c2c[nH]n(-c3ccccn3)c2=O)cc1` [Example 15] the protective activity (Leptosphaeria nodorum) was “clearly superior activity compared with the prior art”, the MIC (Alternaria tenuis) was 50 µg/mL (≈ 187 µM) and the MIC (Aspergillus niger) was 20 µg/mL (≈ 74.8 µM). For the same molecule, the MIC (Aureobasidium pullulans) was 50 µg/mL (≈ 187 µM), the MIC (Chaetomium globosum) was 0.5 µg/mL (≈ 1.87 µM) and the MIC (Coniophora puteana) was 5 µg/mL (≈ 18.7 µM). For the same molecule, the MIC (Lentinus tigrinus) was 50 µg/mL (≈ 187 µM), the MIC (Penicillium glaucum) was 75 µg/mL (≈ 281 µM) and the MIC (Polyporus versicolor) was 20 µg/mL (≈ 74.8 µM). The MIC (Sclerophoma pityophila) was 50 µg/mL (≈ 187 µM) and the MIC (Trichoderma viride) was 1000 µg/mL (≈ 3740 µM).
In the case of `O=c1c(-c2ccc(SC(F)(F)F)cc2)c[nH]n1-c1ccccn1` [Example 19], the protective activity (Leptosphaeria nodorum) is reported as “clearly superior activity compared with the prior art”.
For `O=c1c(-c2cccc(C(F)(F)F)c2)c[nH]n1-c1ccccn1` [Example 24], the protective activity (Leptosphaeria nodorum) was “clearly superior activity compared with the prior art” and the protective activity (Cochliobolus sativus) was “clearly superior activity compared with the prior art”.
For `O=c1c(-c2cc(C(F)(F)F)ccc2Cl)c[nH]n1-c1ccccn1` [Example 26], the protective activity (Leptosphaeria nodorum) was “clearly superior activity compared with the prior art” and the protective activity (Cochliobolus sativus) was “clearly superior activity compared with the prior art”.
`O=c1c(-c2cc(C(F)(F)F)cc(C(F)(F)F)c2)c[nH]n1-c1ccccn1` [Example 28] was tested, and the protective activity (Pyricularia oryzae [1]) was “clearly superior activity compared with the prior art”, the protective activity (Leptosphaeria nodorum) was “clearly superior activity compared with the prior art” and the protective activity (Cochliobolus sativus) was “clearly superior activity compared with the prior art”.
For `O=c1c(-c2cccc(OC(F)(F)F)c2)c[nH]n1-c1ncccn1` [Example 92], the protective activity (Phytophthora infestans) was “clearly superior activity compared with the prior art” and the protective activity (Cochliobolus sativus) was “clearly superior activity compared with the prior art”.
In the case of `O=c1c(-c2ccc(OC(F)(F)F)cc2)c[nH]n1-c1ncccn1` [Example 93], the protective activity (Phytophthora infestans) is reported as “clearly superior activity compared with the prior art”.
In the case of `O=c1c(-c2ccc(SC(F)(F)F)cc2)c[nH]n1-c1ncccn1` [Example 94], the protective activity (Botrytis cinerea) is reported as “clearly superior activity compared with the prior art” and the systemic activity (Pyricularia oryzae [2]) is reported as “clearly superior activity compared with the prior art”.
`Cc1cccc(-c2c[nH]n(-c3ncccn3)c2=O)c1` [Example 97] was tested, and the systemic activity (Pyricularia oryzae [2]) was “clearly superior activity compared with the prior art”, the MIC (Alternaria tenuis) was 50 µg/mL (≈ 198 µM) and the MIC (Aspergillus niger) was 10 µg/mL (≈ 39.6 µM). The MIC (Aureobasidium pullulans) was 50 µg/mL (≈ 198 µM), the MIC (Chaetomium globosum) was 1 µg/mL (≈ 3.96 µM) and the MIC (Coniophora puteana) was 2 µg/mL (≈ 7.93 µM). For the same molecule, the MIC (Lentinus tigrinus) was 10 µg/mL (≈ 39.6 µM), the MIC (Penicillium glaucum) was 10 µg/mL (≈ 39.6 µM) and the MIC (Polyporus versicolor) was 5 µg/mL (≈ 19.8 µM). For the same molecule, the MIC (Sclerophoma pityophila) was 20 µg/mL (≈ 79.3 µM) and the MIC (Trichoderma viride) was 75 µg/mL (≈ 297 µM).
`O=c1c(-c2ccc(C(F)(F)F)cc2)c[nH]n1-c1ncccn1` [Example 100] was tested, and the protective activity (Phytophthora infestans) was “clearly superior activity compared with the prior art”, the protective activity (Leptosphaeria nodorum) was “clearly superior activity compared with the prior art” and the protective activity (Cochliobolus sativus) was “clearly superior activity compared with the prior art”. The MIC (Alternaria tenuis) was 50 µg/mL (≈ 163 µM), the MIC (Aspergillus niger) was 500 µg/mL (≈ 1630 µM) and the MIC (Aureobasidium pullulans) was 50 µg/mL (≈ 163 µM). The MIC (Chaetomium globosum) was 1 µg/mL (≈ 3.27 µM), the MIC (Coniophora puteana) was 5 µg/mL (≈ 16.3 µM) and the MIC (Lentinus tigrinus) was 15 µg/mL (≈ 49 µM). It also gave an MIC (Penicillium glaucum) of 10 µg/mL (≈ 32.7 µM), an MIC (Polyporus versicolor) of 5 µg/mL (≈ 16.3 µM) and an MIC (Sclerophoma pityophila) of 20 µg/mL (≈ 65.3 µM). For the same molecule, the MIC (Trichoderma viride) was 500 µg/mL (≈ 1630 µM).
In the case of `Cc1[nH]n(-c2ncccn2)c(=O)c1-c1ccccc1` [Example 106], the protective activity (Leptosphaeria nodorum) is reported as “clearly superior activity compared with the prior art”.
